Data from US7951829B2, “Benzimidazole modulators of VR1” (Janssen Pharmaceutica NV, priority 2006, dated 2011).
pIC50, pKi: −log10 of the molar value.

How the values were obtained:
hVR1 [1] = biological target: T1, hVR1 (Homo sapiens, UniProt Q8NER1); assay: Human VR1 (hVR1) Functional Assay (FLIPR intracellular calcium, capsaicin challenge); type: cell-based; conditions: capsaicin 0.030 μM, HEK293 cells expressing hVR1; for inhibition at 1 µM: test concentration 1 μM
T1 construct: expressed in transfected cells; host or cells: HEK293
T1 sequence (Q8NER1 whole entry): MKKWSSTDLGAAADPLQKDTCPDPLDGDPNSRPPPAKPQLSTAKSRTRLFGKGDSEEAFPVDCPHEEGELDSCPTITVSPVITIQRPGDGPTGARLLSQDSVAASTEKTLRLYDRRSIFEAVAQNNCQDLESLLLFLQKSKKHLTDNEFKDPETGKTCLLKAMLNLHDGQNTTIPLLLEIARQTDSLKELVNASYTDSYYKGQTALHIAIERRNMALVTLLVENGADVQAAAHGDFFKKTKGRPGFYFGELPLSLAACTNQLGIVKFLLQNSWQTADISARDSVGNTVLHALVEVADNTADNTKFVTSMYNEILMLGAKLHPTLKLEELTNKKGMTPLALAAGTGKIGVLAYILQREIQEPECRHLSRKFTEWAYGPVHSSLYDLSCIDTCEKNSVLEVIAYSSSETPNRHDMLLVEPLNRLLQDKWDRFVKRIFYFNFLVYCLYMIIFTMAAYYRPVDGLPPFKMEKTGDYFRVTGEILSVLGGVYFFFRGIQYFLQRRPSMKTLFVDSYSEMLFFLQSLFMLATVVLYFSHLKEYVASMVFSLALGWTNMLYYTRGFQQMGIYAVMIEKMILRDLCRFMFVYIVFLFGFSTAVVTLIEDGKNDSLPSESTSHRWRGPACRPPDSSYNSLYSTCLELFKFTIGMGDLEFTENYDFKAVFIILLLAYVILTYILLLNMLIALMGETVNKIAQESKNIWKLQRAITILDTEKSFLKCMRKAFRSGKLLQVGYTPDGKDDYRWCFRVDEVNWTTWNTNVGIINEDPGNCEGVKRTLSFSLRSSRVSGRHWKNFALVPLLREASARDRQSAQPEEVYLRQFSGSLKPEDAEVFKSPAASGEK

hVR1 [2] = biological target: T1, hVR1; assay: Human VR1 (hVR1) Binding Assay ([3H] RTX binding); conditions: inhibition of [3H] RTX binding, membranes of HEK293 cells transfected with hVR1

| pIC50 (hVR1 [1]) | inhibition at 1 µM (hVR1 [1]) [%] | pKi (hVR1 [2]) | Compound |
| --- | --- | --- | --- |
| 8.05 | 96 | 8.24 | CC(C)c1ccc(/C=C/c2nc3cc(-c4ccccc4NS(C)(=O)=O)ccc3[nH]2)cc1 [Cpd 407, (E)-N-(2-{2-[2-(4-isopropyl-phenyl)-vinyl]-1H-benzimidazol-5-yl}-phenyl)-methanesulfonamide] |
| 8.15 | 100 | 7.74 | NS(=O)(=O)c1ccccc1-c1ccc2[nH]c(/C=C/c3ccc(Cl)cc3)nc2c1 [Cpd 79, (E)-2-{2-[2-(4-chloro-phenyl)-vinyl]-1H-benzimidazol-5-yl}-benzenesulfonamide] |
| 6.92 | 100 | 7.39 | CC(=O)c1ccccc1-c1ccc2[nH]c(/C=C/c3ccc(C(F)(F)F)cc3)nc2c1 [Cpd 15, (E)-1-(2-{2-[2-(4-trifluoromethyl-phenyl)-vinyl]-1H-benzimidazol-5-yl}-phenyl)-ethanone] |
| 7.27 | 99 | 7.09 | CC(=O)c1ccccc1-c1ccc2[nH]c(/C=C/c3ccc(S(=O)(=O)C(F)(F)F)cc3)nc2c1 [Cpd 40, (E)-1-(2-{2-[2-(4-trifluoromethanesulfonyl-phenyl)-vinyl]-1H-benzimidazol-5-yl}-phenyl)-ethanone] |
| 7.18 | 100 | 8.19 | CC(C)(C)c1ccc(/C=C/c2nc3cc(-c4ccccc4CO)c(C(F)(F)F)cc3[nH]2)cc1 [Cpd 51, (E)-(2-{2-[2-(4-tert-butyl-phenyl)-vinyl]-6-trifluoromethyl-1H-benzimidazol-5-yl}-phenyl)-methanol] |
| 7.57 | 100 | 8.01 | CC(=O)c1ccccc1-c1ccc2[nH]c(/C=C/c3ccc(C(C)(C)C)cc3)nc2c1 [Cpd 1, (E)-1-(2-{2-[2-(4-tert-butyl-phenyl)-vinyl]-1H-benzimidazol-5-yl}-phenyl)-ethanone] |
| 7.15 | 100 | 7.77 | CC(C)(C)c1ccc(/C=C/c2nc3cc(-c4ccccc4C(N)=O)ccc3[nH]2)cc1 [Cpd 5, (E)-2-{2-[2-(4-tert-butyl-phenyl)-vinyl]-1H-benzimidazol-5-yl}-benzamide] |
| 6.42 | 77 | 7.00 | CC(C)(C)c1ccc(CCc2nc3cc(-c4ccccc4O)ccc3[nH]2)cc1 [Cpd 32, 2-{2-[2-(4-tert-butyl-phenyl)-ethyl]-1H-benzimidazol-5-yl}-phenol] |
| 6.59 | 100 | 5.74 | CC(=O)c1ccccc1-c1ccc2[nH]c(/C=C/c3ccc(F)c(F)c3)nc2c1 [Cpd 27, (E)-1-(2-{2-[2-(3,4-difluoro-phenyl)-vinyl]-1H-benzimidazol-5-yl}-phenyl)-ethanone] |
| 8.70 | 99 | 9.05 | CC(C)(C)c1ccc(/C=C/c2nc3cc(-c4ccccc4NS(C)(=O)=O)ccc3[nH]2)cc1 [Cpd 9, (E)-N-(2-{2-[2-(4-tert-butyl-phenyl)-vinyl]-1H-benzimidazol-5-yl}-phenyl)-methanesulfonamide] |
